Source: patent US20080112933A1 (priority 2004, published 2008)

Legend:
[1] = system: hematopoietic progenitor cells; details: mouse, in vivo
[2] = system: hematopoietic progenitor cells; details: mouse, in vivo; remark: listed apart in the source
bone marrow MNCs [3] = experiment: Competitive repopulation assay with treated bone marrow MNCs; type: in vivo, mouse; details: treated CD45.1 BM MNCs injected with equal number of CD45.2 BM MNCs into lethally irradiated CD45.2 mice; flow cytometry eight weeks after injection; FIG. 8
Method: In these experiments CD45.1 cells were either treated with suramin or untreated. They were then injected with an equal number of CD45.2 whole BM MNCs into lethally irradiated CD45.2 mice. Eight weeks following injection the contribution to bone marrow hematopoiesis of the untreated or treated cells was analyzed by flow cytometry.

[4] = system: bone marrow mononuclear cells; experiment: CFU-C assay of treated bone marrow mononuclear cells; details: taken as showing no myelotoxicity
Gαs = Gαs (Mus musculus, UniProt P63094); experiment: Gαs activity measured by cAMP production in bone marrow mononuclear cells; details: bone marrow mononuclear cells treated with the agent; FIG. 3
bone marrow MNCs [5] = experiment: Long-term culture-initiating cell (LTC-IC) assay of treated bone marrow MNCs; details: treated bone marrow mononuclear cells; FIG. 4; taken as showing no myelotoxicity

Sequence of Gαs (P63094 whole entry): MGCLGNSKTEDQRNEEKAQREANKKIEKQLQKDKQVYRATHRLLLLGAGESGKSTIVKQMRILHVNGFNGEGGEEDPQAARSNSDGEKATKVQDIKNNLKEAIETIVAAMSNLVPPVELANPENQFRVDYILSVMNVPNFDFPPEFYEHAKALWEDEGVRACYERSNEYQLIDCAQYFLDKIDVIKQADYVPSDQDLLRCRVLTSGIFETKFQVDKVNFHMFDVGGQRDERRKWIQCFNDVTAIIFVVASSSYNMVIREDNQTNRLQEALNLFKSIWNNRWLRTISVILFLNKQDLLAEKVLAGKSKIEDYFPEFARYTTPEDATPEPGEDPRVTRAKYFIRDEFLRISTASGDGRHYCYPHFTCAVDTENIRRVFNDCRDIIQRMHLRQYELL

Row | Compound | increase in the number of cells homing to the bone marrow [1] [%] | engraftment potential: contribution in competitive transplants [2] | ability to engraft and establish hematopoiesis in the bone marrow (bone marrow MNCs [3]) | ability of the cells to perform in CFU-C assay [4] | cAMP production (indicative of Gαs signaling) (Gαs) | ability of the cells to perform in LTC-IC assay (bone marrow MNCs [5])
1 | cholera toxin | ~75 | enhanced contribution in competitive transplants |  |  |  | 
2 | Cc1ccc(C(=O)Nc2ccc(S(=O)(=O)O)c3cc(S(=O)(=O)O)cc(S(=O)(=O)O)c23)cc1NC(=O)c1cccc(NC(=O)Nc2cccc(C(=O)Nc3cc(C(=O)Nc4ccc(S(=O)(=O)O)c5cc(S(=O)(=O)O)cc(S(=O)(=O)O)c45)ccc3C)c2)c1 [suramin] |  |  | reduction in their ability to engraft and establish hematopoiesis in the bone marrow | did not result in any impairment | reduction in the cAMP production | did not result in any impairment
